Holding throughout (format): in vivo
One test deals with barnyardgrass. The test can be described thus: Upland foliar application test by mixed formulations (Test 7). The conditions noted are these: Echinochloa crus-galli, 720 h, read-out: Herbicidal effects (%) Barnyardgrass Ea. Here is the method: (§1) Resin-made 1/10,000-are pots were filled with the soil of an upland field. Redroot pigweed, morningglories, johnsongrass, barnyardgrass and green foxtail were separately seeded and were allowed to germinate in a green house. When each plant grew to the stage of 2-3 leaves, an emulsion formulated from predetermined amounts of two test compounds of different kinds in a similar manner to the method described in Formulation Example 16 was diluted with water to a predetermined dilution rate and then sprayed at an application rate equal to 5 l per are onto the foliage of each plant by means of a pressure-operated ULV (ultra low volume) sprayer. Influence to the weeds were observed on the 30th day after the spray of the herbicides. In the table, each Ea means an acutally measured value of herbicidal activities when two kinds of herbicides were mixed. Each Ec is an expected value for herbicidal activities, calculated in accordance with the below-described calculation formula proposed by Colby et al. [Colby, S. R., Weed 15, 20-22 (1967)]. Ea>Ec indicates the existence of synergistic action while […] action. [formula] Ec: Growth inhibition rate (%) expected when Ingredient I and Ingredient II are mixed.
(§2) Ex: Growth inhibition rate (%) when treated with Ingredient I alone.
(§3) Ey: Growth inhibition rate (%) when treated with Ingredient II alone.

The subject of another test is morningglories. The test is described as above. Particulars: Ipomoea, 720 h, read-out: Herbicidal effects (%) Morningglory Ea. On the procedure: as §1, §2, §3
The subject of test [1] is redroot pigweed. The description is as above. Particulars: Amaranthus retroflexus, 720 h, read-out: Herbicidal effects (%) Redrood pigweed Ea. Here is the method: as §1, §2, §3
For another test, the system named is green foxtail. Described as above. Particulars: Setaria viridis, 720 h, read-out: Herbicidal effects (%) Green foxtail Ea. On the procedure: as §1, §2, §3
Test [2] relates to johnsongrass. The test is described as follows: Upland foliar application test by mixed formulations, concentration gradient (Test 8). Particulars: Sorghum halepense, 960 h, read-out: Herbicidal effects Johnsongrass Ea. On the procedure: (§4) Resin-made 1/10,000-are pots were filled with the soil of an upland field. Redroot pigweed and johnsongrass were separately seeded and were allowed to germinate in a green house. When each plant grew to the stage of 2-3 leaves, emulsions formulated with concentration gradient from predetermined amounts of two test compounds of different kinds in a similar manner to the method described in Formulation Example 16 was diluted with water to a predetermined dilution rate and then sprayed at an application rate equal to 5 l per are onto the foliage of each plant by means of a pressure-operated ULV (ultra low volume) sprayer. Influence to the weeds were observed on the 40th day after the spray of the herbicides. The results are shown in Table 9, In the table, Ea have the same meanings as in Test 7, and Ea>Ec indicates the existence of synergistic action while Ea<Ec indicates the existence of antagonistic action.

The test system of test [3] is redroot pigweed. Described as above. Particulars: Amaranthus retroflexus, 960 h, read-out: Herbicidal effects Redrood pigweed Ea. On the procedure: as §4
Test [4] has as its system johnsongrass. The test can be described thus: Upland foliar application test by mixed formulations (Test 7). The conditions noted are these: Sorghum halepense, 720 h; for pest or weed control at 300 g/ha: read-out: Herbicidal effects (%) Johnsongrass Ea, applied alone, 0.3 kg/ha, foliar, 30th day; for pest or weed control at 500 g/ha: read-out: Herbicidal effects (%) Johnsongrass Ea, applied alone, 0.5 kg/ha, foliar, 30th day. On the procedure: as §1, §2, §3

The mark [5] stands for this setting: applied alone, 0.3 kg/ha, 30th day.

Where two headings read alike, the source gives them in different places.

Consider `O=C(O)c1cc(Oc2ccc(C(F)(F)F)cc2Cl)ccc1[N+](=O)[O-]` [blazer, reference compound], for which the pest or weed control at 300 g/ha in the test with barnyardgrass (setting [5]) turned out to be 100%; in the test with morningglories (setting [5]), 100%; in the test on redroot pigweed [1] (setting [5]), 100%; with green foxtail (setting [5]) it was 40%.

As for `CCC(=O)Nc1ccc(Cl)c(Cl)c1` [propanil, N-(3,4-dichlorophenyl)propanamide], the pest or weed control at 2000 g/ha was 20% in the test on johnsongrass [2] and 30% with redroot pigweed [3]. Besides, the values for the pest or weed control at 4000 g/ha in the test with johnsongrass [2] and in the test on redroot pigweed [3] were 30% and 70%, respectively. Besides, the pest or weed control at 8000 g/ha with johnsongrass [2] was 50%; in the test with redroot pigweed [3], 70%. The pest or weed control at 3000 g/ha is 40% in the test with barnyardgrass and 10% in the test on johnsongrass [4] (read-out: Herbicidal effects (%) Johnsongrass Ea, applied alone, 3 kg/ha, foliar, 30th day).

Regarding `CCC/C(=N\OCC)C1=C(O)CC(CC(C)SCC)CC1=O` (stereo not shown) [sethoxydim, reference compound], the pest or weed control at 100 g/ha in the test on johnsongrass [2] was determined as 70%; in the test on redroot pigweed [3] it was 0%. The pest or weed control at 200 g/ha stood at 85% in the test on johnsongrass [2]; 0% in the test on redroot pigweed [3]; 0% in the test with barnyardgrass; 0% in the test with morningglories; 95% in the test on johnsongrass [4] (read-out: Herbicidal effects (%) Johnsongrass Ea, applied alone, 0.2 kg/ha, foliar, 30th day); 0% in the test on redroot pigweed [1]. Also, the pest or weed control at 200 g/ha with green foxtail came out at 100%.

With `CON(C)C(=O)Nc1ccc(Cl)c(Cl)c1` [linuron, 3-(3,4-dichlorophenyl)-1-methoxy-1-methylurea], in the test on johnsongrass [2], the pest or weed control at 200 g/ha amounted to 0%, the pest or weed control at 400 g/ha turned out to be 10% and the pest or weed control at 800 g/ha was 20%. In addition, in the test with redroot pigweed [3], the pest or weed control at 200 g/ha stood at 40%, the pest or weed control at 400 g/ha stood at 70% and the pest or weed control at 800 g/ha came out at 85%. The pest or weed control at 300 g/ha with morningglories is 30%. In the test with johnsongrass [4], the pest or weed control at 300 g/ha was determined as 10%.

With `CCNc1nc(Cl)nc(NC(C)(C)C#N)n1` [cyanazine, 2-(2-chloro-4-ethylamino-1,3,5-triazine-6-ylamino)-2-methylpropionitrile], the pest or weed control at 400 g/ha in the test with johnsongrass [2] worked out at 0%; in the test on redroot pigweed [3] it was 10%. In addition, the results for the pest or weed control at 800 g/ha with johnsongrass [2] and with redroot pigweed [3] were 10% and 30%, respectively. Besides, the results for the pest or weed control at 1600 g/ha with johnsongrass [2] and with redroot pigweed [3] were 20% and 50%, respectively. Moreover, the pest or weed control at 1000 g/ha turned out to be 10% with johnsongrass [4] (read-out: Herbicidal effects (%) Johnsongrass Ea, applied alone, 1 kg/ha, foliar, 30th day) and 40% with redroot pigweed [1].

Take `CN(C)C(=O)Nc1cccc(C(F)(F)F)c1` [fluometuron, 1,1-dimethyl-3-(3-trifluoromethylphenyl)urea]: the pest or weed control at 200 g/ha is 0% in the test on johnsongrass [2] and 20% in the test with redroot pigweed [3]. Besides, the pest or weed control at 400 g/ha with johnsongrass [2] was 10%; in the test on redroot pigweed [3], 30%. Besides, the pest or weed control at 800 g/ha in the test on johnsongrass [2] was 20%; with redroot pigweed [3], 50%. Also, the pest or weed control at 500 g/ha in the test on johnsongrass [4] and in the test on redroot pigweed [1] was 30% in each case.

Take `CN(C)C(=O)Nc1ccc(Cl)c(Cl)c1` [diuron, 3-(3,4-dichlorophenyl)-1,1-dimethylurea]: in the test with johnsongrass [2], the pest or weed control at 200 g/ha stood at 0%, the pest or weed control at 400 g/ha worked out at 10% and the pest or weed control at 800 g/ha turned out to be 20%. For the same compound, in the test with redroot pigweed [3], the pest or weed control at 200 g/ha came out at 30%, the pest or weed control at 400 g/ha is 70% and the pest or weed control at 800 g/ha worked out at 85%. For the same compound, the pest or weed control at 300 g/ha in the test on johnsongrass [4] stood at 10%. Moreover, the pest or weed control at 300 g/ha with redroot pigweed [1] was 40%.

As for `CSc1nc(NC(C)C)nc(NC(C)C)n1` [prometryn, 2-methylthio-4,6-bis(isopropylamino)-1,3,5-triazine], in the test with johnsongrass [2], the pest or weed control at 200 g/ha is 0%, the pest or weed control at 400 g/ha is 10% and the pest or weed control at 800 g/ha came to 20%. For the same compound, in the test with redroot pigweed [3], the pest or weed control at 200 g/ha was 10%, the pest or weed control at 400 g/ha came out at 20% and the pest or weed control at 800 g/ha is 40%. In addition, in the test on morningglories, the pest or weed control at 500 g/ha was 30%. Also, the pest or weed control at 500 g/ha in the test with johnsongrass [4] is 20%.
